Measured values from PubChem BioAssay (NCI).
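Five concentrations, 48 hours, 96-well plates. GI50 is the concentration that inhibits growth by half. TGI: total growth inhibition.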

Experiments:
Assay in all cases: inhibition of tumour cell growth, NCI panel, 48 h
SK-MEL-5 melanoma = tested on: SK-MEL-5 melanoma
SF-295 CNS = tested on: SF-295 CNS
HS 578T breast = tested on: HS 578T breast
SNB-19 CNS = tested on: SNB-19 CNS
TK-10 renal = tested on: TK-10 renal
SR leukemia = tested on: SR leukemia
U251 CNS = tested on: U251 CNS
BT-549 breast = tested on: BT-549 breast
NCI-H522 lung = tested on: NCI-H522 lung
OVCAR-5 ovarian = tested on: OVCAR-5 ovarian

| SMILES | GI50 (SK-MEL-5 melanoma) [µM] | TGI (SK-MEL-5 melanoma) [µM] | GI50 (SF-295 CNS) [µM] | TGI (SF-295 CNS) [µM] | GI50 (HS 578T breast) [µM] | TGI (HS 578T breast) [µM] | GI50 (SNB-19 CNS) [µM] | TGI (SNB-19 CNS) [µM] | GI50 (TK-10 renal) [µM] | TGI (TK-10 renal) [µM] | GI50 (SR leukemia) [µM] | TGI (SR leukemia) [µM] | GI50 (U251 CNS) [µM] | TGI (U251 CNS) [µM] | GI50 (BT-549 breast) [µM] | TGI (BT-549 breast) [µM] | GI50 (NCI-H522 lung) [µM] | TGI (NCI-H522 lung) [µM] | GI50 (OVCAR-5 ovarian) [µM] | TGI (OVCAR-5 ovarian) [µM] |
| --- | --- | --- | --- | --- | --- | --- | --- | --- | --- | --- | --- | --- | --- | --- | --- | --- | --- | --- | --- | --- |
| COc1cc2c(cc1NC(=O)C(Cl)Cl)-c1ccc(NC(=O)C(Cl)Cl)cc1C2 | 4.35 | 18.3 | 0.371 | 1.12 | 0.953 | > 34.7 | 0.461 | 2.06 | 0.687 | 2.53 | 5.27 | 24.2 | 0.245 | 0.708 | 1.74 | 13.3 | 5.83 | 19.7 | 1.77 | 4.75 |
| Cc1cc2c(c(=O)o1)C1=S(SC(c3ccccc3)=C1)S2 (centres undefined) | – | > 100 | – | 88 | – | 96 | – | > 100 | – | 87.4 | – | 38.5 | – | 57.2 | – | > 100 | – | > 100 | – | > 100 |
| O=S(=O)(O)c1ccc2cc3nn(-c4ccc(/C=C/c5ccc(-n6nc7cc8ccc(S(=O)(=O)O)cc8cc7n6)cc5S(=O)(=O)O)c(S(=O)(=O)O)c4)nc3cc2c1 | 94.7 | > 100 | > 100 | > 100 | > 100 | > 100 | > 100 | > 100 | 10.6 | > 100 | 34.4 | > 100 | 50.3 | > 100 | > 100 | > 100 | 78.4 | > 100 | 62.5 | > 100 |
| O=C1C(Nc2cccc(O)c2)=C(Sc2ccccc2)C(=O)N1Cc1ccccc1 | 2.37 | 17 | 13.5 | 50.2 | 11.5 | 43.8 | 13 | 27 | – | 16.8 | 4.74 | 21.2 | 13 | 35.4 | 11.2 | 43.5 | 5.75 | 23.9 | 18.2 | 34.1 |
| COc1cc(/C=C/C(=O)O[C@H]2[C@H](O[C@@H]3O[C@@H](C)[C@H](O)[C@@H](O)[C@H]3O)[C@@H](O)[C@H](OCCc3ccc(O)c(O)c3)O[C@@H]2COC2OCC(O)(CO)C2O)ccc1O (some centres undefined) | > 100 | > 100 | > 100 | > 100 | 67.6 | > 100 | > 100 | > 100 | > 100 | > 100 | > 100 | > 100 | > 100 | > 100 | 23.8 | 41.8 | > 100 | > 100 | > 100 | > 100 |
| CC1CCN(CCOc2ccc(CNc3ccc4nc(CCC5CCCCC5)[nH]c4c3)cc2)CC1 | 1.7 | 3.08 | 1.87 | 3.46 | 1.67 | 4.06 | 2.03 | 4.2 | 2.24 | 4.92 | 0.485 | 2.66 | 1.44 | 2.85 | 1.52 | 2.91 | 1.82 | 3.58 | 1.76 | 3.44 |
